Source: patent US20140303546A1, “LASER ASSISTED DELIVERY OF FUNCTIONAL CELLS, PEPTIDES AND NUCLEOTIDES” (priority 2011, published 2014)

Tested on: Methicillin resistant Staphylococcus aureus (MRSA) biofilms
Experiment: MRSA biofilm deep partial thickness wound model
Assay type: in vivo
Settings: 24 hours after treatment; for reduction of MRSA counts in wounds: porcine wounds
Protocol: Rectangular wounds measuring (10 mm×7 mm×0.5 mm) were made on the paravertebral and thoracic area (porcine) with a specialized electrokeratome fitted with a 7 mm blade. Wounds were inoculated with 250 μL of a 10^6 CFU/ml suspension and covered individually with a polyurethane film dressing to allow for biofilm formation. After 24 hours, the dressings were removed and wounds were randomly assigned to one of the following treatment groups: 1) untreated control, 2) ErYag, 3) ErYag plus gentamycin or 3) gentamycin alone. After treatment the wounds were covered with a new polyurethane film dressing and after 24 hours wounds were recovered for MRSA counts using a well published scrub technique. Oxicillin resistance screening agar (ORSAB) was used to isolate MRSA from the wounds. All plates were incubated aerobically overnight (16-24 hours) at 37° C., after which the number of viable colonies will be counted.
Methicillin resistant Staphylococcus aureus (MRSA) biofilms were created using a deep partial thickness wound model (described above). Wounds were randomly assigned to one of the following treatment groups: 1) untreated control, 2) ErYag, 3) ErYag plus gentamycin or 3) gentamycin alone. Twenty four hours after treatment, MRSA was recovered. […] However in combination (Laser+gentamycin) were able to reduce MRSA counts by 1.72 Log CFU/ml.

[1] = in combination with ErYag laser

With gentamycin the “reduction of MRSA counts in wounds” value (gentamycin alone) was 0.6 Log CFU/ml, the “reduction in MRSA” value [1] was 98.09% and the “reduction of MRSA counts in wounds” value [1] was 1.72 Log CFU/ml.
